Assay [1] deals with albumin (Bos taurus, UniProt P02769). The assay can be described thus: Anti-AGE activity measured on albumin (pentosidine-type AGEs formed). Format: biochemical. The following applies: quantity of pentosidine-type AGEs formed.
The nature of assay [2]: DPPH antioxidant potential. Conditions: for DPPH (μmol TE/g): TE: Trolox Equivalent. For orientation: The DPPH test is a chemical assay of radical scavenging.
Assay [3] in a line: ORAC antioxidant potential. Conditions: for ORAC (μmol TE/g): TE: Trolox Equivalent.
The target of assay [4] is T1, calf skin collagen (Bos taurus, UniProt P02453+P02465).
T1 construct: from tissue; host or cells: calf skin
T1 sequence (P02453 162-1217 limits assumed): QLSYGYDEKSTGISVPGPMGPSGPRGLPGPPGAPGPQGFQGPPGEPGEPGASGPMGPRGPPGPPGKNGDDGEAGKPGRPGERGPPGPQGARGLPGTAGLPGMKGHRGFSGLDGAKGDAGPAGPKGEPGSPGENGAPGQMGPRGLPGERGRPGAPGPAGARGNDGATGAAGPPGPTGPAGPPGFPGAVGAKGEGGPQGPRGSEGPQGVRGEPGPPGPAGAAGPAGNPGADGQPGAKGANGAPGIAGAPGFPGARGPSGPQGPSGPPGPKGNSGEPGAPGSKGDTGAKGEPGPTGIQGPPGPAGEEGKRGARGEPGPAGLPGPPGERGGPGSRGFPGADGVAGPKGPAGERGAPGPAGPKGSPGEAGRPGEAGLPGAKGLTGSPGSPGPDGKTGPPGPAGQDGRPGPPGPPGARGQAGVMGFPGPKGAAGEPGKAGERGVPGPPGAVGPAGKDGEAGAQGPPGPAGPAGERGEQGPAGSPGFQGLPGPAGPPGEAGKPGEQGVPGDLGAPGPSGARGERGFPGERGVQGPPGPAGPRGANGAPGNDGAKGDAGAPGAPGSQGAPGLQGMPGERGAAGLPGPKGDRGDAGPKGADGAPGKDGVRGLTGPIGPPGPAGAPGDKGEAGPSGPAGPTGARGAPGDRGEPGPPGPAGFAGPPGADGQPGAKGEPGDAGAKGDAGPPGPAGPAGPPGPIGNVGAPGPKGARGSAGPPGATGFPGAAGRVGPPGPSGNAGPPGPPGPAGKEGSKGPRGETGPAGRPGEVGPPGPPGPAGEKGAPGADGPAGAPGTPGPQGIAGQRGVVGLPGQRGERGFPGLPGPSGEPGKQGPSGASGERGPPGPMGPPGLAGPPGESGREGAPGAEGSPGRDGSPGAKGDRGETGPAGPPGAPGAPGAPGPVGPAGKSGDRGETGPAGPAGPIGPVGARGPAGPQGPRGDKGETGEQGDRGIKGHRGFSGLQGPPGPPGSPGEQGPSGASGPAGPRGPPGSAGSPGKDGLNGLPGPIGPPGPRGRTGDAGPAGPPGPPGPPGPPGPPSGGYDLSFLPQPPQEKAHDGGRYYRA
T1 sequence (P02465 80-1117 limits assumed): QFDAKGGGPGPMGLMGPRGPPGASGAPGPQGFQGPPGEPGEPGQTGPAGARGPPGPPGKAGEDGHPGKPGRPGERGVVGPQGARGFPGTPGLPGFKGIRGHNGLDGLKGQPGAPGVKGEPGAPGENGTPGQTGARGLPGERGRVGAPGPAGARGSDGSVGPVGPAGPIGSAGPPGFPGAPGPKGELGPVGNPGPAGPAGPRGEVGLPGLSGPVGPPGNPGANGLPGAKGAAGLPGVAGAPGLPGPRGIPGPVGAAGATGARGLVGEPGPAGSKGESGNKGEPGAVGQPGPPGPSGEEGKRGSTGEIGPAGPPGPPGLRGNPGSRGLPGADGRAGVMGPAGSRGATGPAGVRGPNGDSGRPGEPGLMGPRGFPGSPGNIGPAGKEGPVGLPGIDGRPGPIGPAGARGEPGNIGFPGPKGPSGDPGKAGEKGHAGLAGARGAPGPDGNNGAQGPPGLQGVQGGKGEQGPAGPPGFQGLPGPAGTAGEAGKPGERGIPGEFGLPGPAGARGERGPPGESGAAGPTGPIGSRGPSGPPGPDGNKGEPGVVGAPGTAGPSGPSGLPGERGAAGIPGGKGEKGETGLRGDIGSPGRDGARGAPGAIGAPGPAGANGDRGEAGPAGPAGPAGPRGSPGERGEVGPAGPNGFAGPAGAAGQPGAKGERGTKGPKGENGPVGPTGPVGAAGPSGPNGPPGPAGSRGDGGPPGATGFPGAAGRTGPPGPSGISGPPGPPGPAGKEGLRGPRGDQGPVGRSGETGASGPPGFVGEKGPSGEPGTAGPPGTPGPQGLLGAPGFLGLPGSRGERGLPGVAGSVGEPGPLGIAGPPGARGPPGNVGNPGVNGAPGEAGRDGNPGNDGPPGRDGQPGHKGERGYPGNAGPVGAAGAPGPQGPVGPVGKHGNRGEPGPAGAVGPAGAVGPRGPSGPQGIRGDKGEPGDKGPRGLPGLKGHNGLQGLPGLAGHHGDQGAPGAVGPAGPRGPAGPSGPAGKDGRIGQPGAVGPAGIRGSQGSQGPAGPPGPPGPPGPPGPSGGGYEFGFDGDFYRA
The assay can be described thus: Anti-AGE activity on calf skin collagen in solution in the presence of ribose (pentosidine-type AGE fluorescence). Conditions: for IC50: read-out: Anti-AGE activity measured on collagen (IC50 in mg/mL) (converted). Format: biochemical. Here is the method:
Calf skin collagen (0.1 mg/mL) and ribose (0.5 M) are incubated in phosphate buffer 50 mM pH 7.4 at 37° C. in a 96-well Greiner bio-one plate with a black bottom (100 μL). The same experiment is performed in the presence of an AGE formation inhibitor, such as aminoguanidine (1 mg/mL, DMSO 10%). The following control solutions are also prepared: collagen (0.1 mg/mL) with or without an AGE formation inhibitor (1 mg/mL, DMSO 10%) is incubated in phosphate buffer 50 mM pH 7.4 at 37° C.

Where [5] appears, read: ribose, quantity of pentosidine-type AGEs formed, NA: Inactive.

Sequence of albumin (P02769 25-607): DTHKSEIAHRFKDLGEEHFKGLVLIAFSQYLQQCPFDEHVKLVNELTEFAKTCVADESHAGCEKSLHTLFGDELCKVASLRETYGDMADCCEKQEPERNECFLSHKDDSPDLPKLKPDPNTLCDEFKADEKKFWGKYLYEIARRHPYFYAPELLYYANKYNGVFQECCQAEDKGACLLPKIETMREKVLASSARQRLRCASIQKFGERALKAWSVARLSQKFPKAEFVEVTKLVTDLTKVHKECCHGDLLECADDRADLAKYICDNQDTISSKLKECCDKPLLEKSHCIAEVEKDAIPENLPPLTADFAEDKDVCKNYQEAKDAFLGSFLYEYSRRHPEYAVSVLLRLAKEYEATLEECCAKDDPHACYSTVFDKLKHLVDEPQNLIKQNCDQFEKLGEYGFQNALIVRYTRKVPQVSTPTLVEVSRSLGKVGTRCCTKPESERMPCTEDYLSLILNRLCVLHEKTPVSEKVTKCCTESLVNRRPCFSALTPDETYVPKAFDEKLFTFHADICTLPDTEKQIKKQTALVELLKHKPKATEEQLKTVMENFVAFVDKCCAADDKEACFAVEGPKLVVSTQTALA

For the compound `Oc1cc(O)c2c(c1)O[C@H](c1ccc(O)c(O)c1)[C@H](O)[C@H]2c1c(O)cc(O)c2c1O[C@H](c1ccc(O)c(O)c1)[C@H](O)C2` [Procyanidin B2], the “Anti-AGE activity measured on albumin (IC50 in mg/mL)” value in assay [1] is on record as 0.1 mg/mL. Also, the “DPPH (μmol TE/g)” value in assay [2] is recorded as 3945 μmol TE/g. The “ORAC (μmol TE/g)” value in assay [3] was found to be 23720 μmol TE/g.
`N=C(N)NN` [Aminoguanidine]: in assay [4] (setting [5]), the IC50 was 13.5 mM. Moreover, the IC50 in assay [1] (read-out: Anti-AGE activity measured on albumin (IC50 in mg/mL) (converted)) is 2.02 mM. Moreover, in assay [2], the “antioxidant activity, DPPH test (in words)” value was “does not have an antioxidant activity” and the “DPPH (μmol TE/g)” value came out at 0 μmol TE/g. Also, in assay [3], the “antioxidant activity, ORAC test (in words)” value is recorded as “does not have an antioxidant activity” and the “ORAC (μmol TE/g)” value is 0 μmol TE/g.
As for `O=c1c(O)c(-c2ccc(O)c(O)c2)oc2cc(O)cc(O)c12` [Quercetin], the IC50 in assay [4] (setting [5]) is 1.16 mM. For the same compound, the “DPPH (μmol TE/g)” value in assay [2] is given as 6722 μmol TE/g.
Take GB2: the “Anti-AGE activity measured on collagen (IC50 in mg/mL)” value in assay [4] (setting [5]) is given as 0.03 mg/mL.
As for `C/C(=C\CC/C(C)=C/CC[C@]1(C)CCc2cc(O)cc(C)c2O1)CC/C=C(\C)C(=O)O` [garcinoic acid], the “anti-glycation activity on calf skin collagen (in words)” value in assay [4] is “has a real anti-glycation activity, but nevertheless inferior to that of kolaviron”.

The values are drawn from patent US9107849B2, “Anti-glycation agent comprising a Garcinia kola extract or fraction” (UNIVERSITE D'ANGERS, priority 2012, dated 2015).
